Measurements: patent US7399493B2, “Anti-irritant botanicals” (priority 2004, dated 2008)

Legend:
[1] = system: irritating action of alpha-hydroxy acids (lactic and glycolic acids); details: Rosmarinic acid 5%; cited from earlier work
HaCat keratinocytes = assay: Retinoid-stimulated autocrine (RSA) clonal growth assay; format: cell-based, human; details: 10 μM, 48 hours after treatment, relative to untreated control
Description: Since retinoids irritate skin leading to epidermal hyperplasia, it is the inventors idea that plant extracts that act as inhibitors of retinoid -stimulated autocrine growth are themselves anti-irritants. This hypothesis was tested using an in vitro keratinocyte culture model.
An immortalized line of human epidermal kertatinocytes, HaCat keratinocytes, can be cultured in a serum-free culture medium. Sterile Petri dishes (35 mm^2) are seeded at 5,000 cells per cm^2 and placed in a humidified CO2 incubator at 37° C. for 3-5 days or until the culture reaches about 30% confluent monolayer growth. The dishes are washed once with ice-cold serum-free media lacking EGF and insulin, and refed 2.5 ml of serum-free culture medium containing 5 ug/ml insulin and retinyl acetate (RA, 3×10^−8 M).—Duplicate control dishes are fixed and stained with 0.2% crystal violet to record the—amount of clonal growth prior to refeeding with fresh RA-containing medium. Test—dishes refed RA and insulin are split into three groups in duplicate. Group A is refed on the RA plus insulin medium. Group B is refed RA plus insulin medium and a TRK inhibitor (PD 15356), and Group C is refed medium containing RA plus insulin and from 0.1 to 5% of a hydroalcoholic botanical extract. All dishes are adjusted to have the same final concentration of alcohol (1%). All dishes are placed back in the incubator for 2 and 4 days. […]

SMILES	reduction of the irritating action of alpha-hydroxy acids [1]	inhibition of RSA clonal growth (HaCat keratinocytes)
O=C(/C=C/c1ccc(O)c(O)c1)O[C@H](Cc1ccc(O)c(O)c1)C(=O)O [Rosmarinic acid]	reduce by more than three-fold	
O.O.O=c1c(O)c(-c2ccc(O)c(O)c2)oc2cc(O)cc(O)c12 [quercetin dihydrate]		completely inhibited
